{"source": "paper PMC10529594", "about": "“Strasseriolides display in vitro and in vivo activity against trypanosomal parasites and cause morphological and size defects in Trypanosoma cruzi” (PLOS Neglected Tropical Diseases, 2023)", "key": {"[1]": {"set-up": "method as in PMID 34865639", "settings": "murine model, cited from earlier work"}, "[2]": {"system": "T. cruzi epimastigotes", "assay": "Microscopy analysis of T. cruzi epimastigotes (DAPI cell cycle, DIC morphology)", "assay_type": "cell-based, Trypanosoma cruzi", "settings": "for % Cells 0N1K, Average / % Cells 1N1K1F, Average / % Cells 1N*1K*1F, Average / % Cells 1N*2K2F, Average / % Cells 2N1K, Average / % Cells 2N2K2F, Average / % Cells Other, Average / % Cells 0N1K, individual replicates / % Cells 1N1K1F, individual replicates / % Cells 1N*1K*1F, individual replicates / % Cells 1N*2K2F, individual replicates / % Cells 2N1K, individual replicates / % Cells 2N2K2F, individual replicates / % Cells Other, individual replicates: 72-hour drug exposure, DAPI staining", "protocol": "For morphological phenotypic analysis and further confirmation of cell cycle analysis by FACS, T. cruzi epimastigotes were grown for 72 hours in a 6-well plate in the presence and absence of drugs. Briefly, 1 × 10^6 parasites of each condition were harvested and fixed in 4% p-formaldehyde at 4°C for 20 minutes, washed twice with cold PBS, and placed on poly-L-lysine-coated slides. Followed by dehydration in methanol, parasite samples were stained and mounted with DAPI Prolong. Digital images were acquired with a Leica DMi8 microscope in Tile Scan mode with […] excitation to quantify DAPI stained nuclei and kinetoplasts of the parasite population. Transmitted light microscopy was used to acquire differential interference contrast (DIC) images (> 80 individual cells in each of two independent experiments)."}, "[3]": {"system": "T. cruzi epimastigotes", "assay": "Quantification of ATP intracellular levels (CellTiter-Glo)", "assay_type": "cell-based, Trypanosoma cruzi", "settings": "for ATP content, individual replicates: single replicates", "protocol": "ATP was determined using the CellTiter-Glo assay. Optimum readout conditions and linearity of the assay were established for T. cruzi epimastigotes by testing different cell densities. The assay was linear up to 100,000 cells (in 90 μl) per well. 50,000 cells (from log phase cultures) per well were dispensed into 96-well white flat bottom microplates containing 10 μl of strasseriolide C at concentrations ranging from 0.4 to 6.25 μM and grown at 28°C for 72 hours with orbital shaking. ATP standard curves were obtained using concentrations ranging from 0.1 to 100 pmol of ATP disodium salt in 90 μl of LIT medium per well. Both samples and standards were assayed in triplicate. 70 μL of CellTiter-Glo solution were added to treated and control parasites and to the standard curve wells, and luminescence detection was recorded after 15 minutes incubation in a Tecan Infinite 200 microplate reader.\nTo determine if ATP production was affected by these compounds, we measured intracellular levels in T. cruzi epimastigotes. After 72-hour treatment with strasseriolide C at doses ranging from 0.4 to 6.25 μM, 70 μl of Cell-Titer Glo reagent were added with a multichannel pipette. Plates were incubated at 28°C for 10 minutes, after which luminescence was recorded. Luminescence relative light unit (RLU) values were interpolated in the ATP calibration curve (S4A Fig) and pmol of ATP per well were quantified. Considering proliferation inhibition due to strasseriolide C activity, values were normalized with respect to the number of parasites as determined by counting in a Neubauer chamber using phase contrast microscopy."}}, "note": "Several values for one entry are separate records, joined by “and”; a condition that tells them apart may be missing. Identical values can stand only once. Like-named read-outs stand apart in the source and are kept apart here."}
{"smiles": "C/C1=C\\[C@H](C)CC[C@@H](O)/C(C)=C/[C@H](C)C[C@@H](C)CC[C@@H]([C@@H](C)C(=O)O)OC(=O)[C@@H](C)C1", "note": "[Strasseriolide B, strasseriolide B]", "values": [{"measurement": "toxicity in vivo", "setting": "[1]; listed as B", "result": "toxic in vivo"}, {"measurement": "toxicity in vivo", "setting": "[1]; listed as strasseriolide B", "result": "toxic"}]}
{"smiles": "C/C1=C\\[C@H](C)C(=O)C[C@@H](O)/C(C)=C/[C@H](C)C[C@@H](C)CC[C@@H]([C@@H](C)C(=O)O)OC(=O)[C@@H](C)C1", "note": "[Strasseriolide C, strasseriolide C]", "values": [{"measurement": "% Cells 0N1K, Average", "setting": "[2]; EC30, average", "result": 0.9709, "unit": "%"}, {"measurement": "% Cells 1N1K1F, Average", "setting": "[2]; EC30, average", "result": 66.0194, "unit": "%"}, {"measurement": "% Cells 1N*1K*1F, Average", "setting": "[2]; EC30, average", "result": 4.854, "unit": "%"}, {"measurement": "% Cells 1N*2K2F, Average", "setting": "[2]; EC30, average", "result": 2.913, "unit": "%"}, {"measurement": "% Cells 2N1K, Average", "setting": "[2]; EC30, average", "result": 4.854, "unit": "%"}, {"measurement": "% Cells 2N2K2F, Average", "setting": "[2]; EC30, average", "result": 19.4175, "unit": "%"}, {"measurement": "% Cells Other, Average", "setting": "[2]; EC30, average", "result": 0.9709, "unit": "%"}, {"measurement": "% Cells 0N1K, individual replicates", "setting": "[2]; EC30, single replicates", "result": 0.9709, "unit": "%"}, {"measurement": "% Cells 1N1K1F, individual replicates", "setting": "[2]; EC30, single replicates", "result": "70.8738% and 61.165%"}, {"measurement": "% Cells 1N*1K*1F, individual replicates", "setting": "[2]; EC30, single replicates", "result": 4.854, "unit": "%"}, {"measurement": "% Cells 1N*2K2F, individual replicates", "setting": "[2]; EC30, single replicates", "result": 2.913, "unit": "%"}, {"measurement": "% Cells 2N1K, individual replicates", "setting": "[2]; EC30, single replicates", "result": "6.796% and 2.913%"}, {"measurement": "% Cells 2N2K2F, individual replicates", "setting": "[2]; EC30, single replicates", "result": "13.5922% and 25.2427%"}, {"measurement": "% Cells Other, individual replicates", "setting": "[2]; EC30, single replicates", "result": "0% and 1.942%"}, {"measurement": "% Cells 0N1K, Average", "setting": "[2]; EC70, average", "result": 3.4269, "unit": "%"}, {"measurement": "% Cells 1N1K1F, Average", "setting": "[2]; EC70, average", "result": 57.8968, "unit": "%"}, {"measurement": "% Cells 1N*1K*1F, Average", "setting": "[2]; EC70, average", "result": 5.388, "unit": "%"}, {"measurement": "% Cells 1N*2K2F, Average", "setting": "[2]; EC70, average", "result": 3.4269, "unit": "%"}, {"measurement": "% Cells 2N1K, Average", "setting": "[2]; EC70, average", "result": 2.951, "unit": "%"}, {"measurement": "% Cells 2N2K2F, Average", "setting": "[2]; EC70, average", "result": 24.9207, "unit": "%"}, {"measurement": "% Cells Other, Average", "setting": "[2]; EC70, average", "result": 2.961, "unit": "%"}, {"measurement": "% Cells 0N1K, individual replicates", "setting": "[2]; EC70, single replicates", "result": "2.9703% and 3.8835%"}, {"measurement": "% Cells 1N1K1F, individual replicates", "setting": "[2]; EC70, single replicates", "result": "63.3663% and 52.4272%"}, {"measurement": "% Cells 1N*1K*1F, individual replicates", "setting": "[2]; EC70, single replicates", "result": "4.9505% and 5.825%"}, {"measurement": "% Cells 1N*2K2F, individual replicates", "setting": "[2]; EC70, single replicates", "result": "2.9703% and 3.8835%"}, {"measurement": "% Cells 2N1K, individual replicates", "setting": "[2]; EC70, single replicates", "result": "3.9604% and 1.942%"}, {"measurement": "% Cells 2N2K2F, individual replicates", "setting": "[2]; EC70, single replicates", "result": "16.8317% and 33.0097%"}, {"measurement": "% Cells Other, individual replicates", "setting": "[2]; EC70, single replicates", "result": "4.9505% and 0.9709%"}, {"measurement": "morphological changes (DIC microscopy)", "setting": "[2]; 72 h, at EC70", "result": "smaller and rounded parasites"}, {"measurement": "ATP content, Average (pmol ATP/cell)", "setting": "[3]; 0.390625 µM", "result": "1.759e-5", "unit": "pmol ATP/cell"}, {"measurement": "ATP content, individual replicates", "setting": "[3]; 0.390625 µM", "result": "1.792e-5 pmol ATP/cell and 1.833e-5 pmol ATP/cell and 1.6509e-5 pmol ATP/cell"}, {"measurement": "ATP content, Average (pmol ATP/cell)", "setting": "[3]; 0.78125 µM", "result": "1.732e-5", "unit": "pmol ATP/cell"}, {"measurement": "ATP content, individual replicates", "setting": "[3]; 0.78125 µM", "result": "1.756e-5 pmol ATP/cell and 1.79e-5 pmol ATP/cell and 1.649e-5 pmol ATP/cell"}, {"measurement": "ATP content, Average (pmol ATP/cell)", "setting": "[3]; 1.5625 µM", "result": "1.679e-5", "unit": "pmol ATP/cell"}, {"measurement": "ATP content, individual replicates", "setting": "[3]; 1.5625 µM", "result": "1.677e-5 pmol ATP/cell and 1.743e-5 pmol ATP/cell and 1.6178e-5 pmol ATP/cell"}, {"measurement": "ATP content, Average (pmol ATP/cell)", "setting": "[3]; 3.125 µM", "result": "1.67e-5", "unit": "pmol ATP/cell"}, {"measurement": "ATP content, individual replicates", "setting": "[3]; 3.125 µM", "result": "1.693e-5 pmol ATP/cell and 1.736e-5 pmol ATP/cell and 1.58e-5 pmol ATP/cell"}, {"measurement": "ATP content, Average (pmol ATP/cell)", "setting": "[3]; 6.25 µM", "result": "1.53e-5", "unit": "pmol ATP/cell"}, {"measurement": "ATP content, individual replicates", "setting": "[3]; 6.25 µM", "result": "1.501e-5 pmol ATP/cell and 1.61e-5 pmol ATP/cell and 1.48e-5 pmol ATP/cell"}, {"measurement": "cellular ATP pool", "setting": "[3]; epimastigotes, 72 h, 0.4 to 6.25 μM, normalized to parasite number", "result": "discrete reduction"}]}
{"smiles": "C/C1=C\\[C@H](C)[C@@H](O)C[C@@H](O)/C(C)=C/[C@H](C)C[C@@H](C)CC[C@@H]([C@@H](C)C(=O)O)OC(=O)[C@@H](C)C1", "note": "[Strasseriolide D, strasseriolide D]", "values": [{"measurement": "% Cells 0N1K, Average", "setting": "[2]; EC30, average", "result": 1.2, "unit": "%"}, {"measurement": "% Cells 1N1K1F, Average", "setting": "[2]; EC30, average", "result": 57.325, "unit": "%"}, {"measurement": "% Cells 1N*1K*1F, Average", "setting": "[2]; EC30, average", "result": 6.55, "unit": "%"}, {"measurement": "% Cells 1N*2K2F, Average", "setting": "[2]; EC30, average", "result": 2.85, "unit": "%"}, {"measurement": "% Cells 2N1K, Average", "setting": "[2]; EC30, average", "result": 4.5, "unit": "%"}, {"measurement": "% Cells 2N2K2F, Average", "setting": "[2]; EC30, average", "result": 26.325, "unit": "%"}, {"measurement": "% Cells Other, Average", "setting": "[2]; EC30, average", "result": 1.25, "unit": "%"}, {"measurement": "% Cells 0N1K, individual replicates", "setting": "[2]; EC30, single replicates", "result": "0% and 2.4%"}, {"measurement": "% Cells 1N1K1F, individual replicates", "setting": "[2]; EC30, single replicates", "result": "56.25% and 58.4%"}, {"measurement": "% Cells 1N*1K*1F, individual replicates", "setting": "[2]; EC30, single replicates", "result": "7.5% and 5.6%"}, {"measurement": "% Cells 1N*2K2F, individual replicates", "setting": "[2]; EC30, single replicates", "result": "2.5% and 3.2%"}, {"measurement": "% Cells 2N1K, individual replicates", "setting": "[2]; EC30, single replicates", "result": "5% and 4%"}, {"measurement": "% Cells 2N2K2F, individual replicates", "setting": "[2]; EC30, single replicates", "result": "26.25% and 26.4%"}, {"measurement": "% Cells Other, individual replicates", "setting": "[2]; EC30, single replicates", "result": "2.5% and 0%"}, {"measurement": "% Cells 0N1K, Average", "setting": "[2]; EC70, average", "result": 0.4587, "unit": "%"}, {"measurement": "% Cells 1N1K1F, Average", "setting": "[2]; EC70, average", "result": 62.2955, "unit": "%"}, {"measurement": "% Cells 1N*1K*1F, Average", "setting": "[2]; EC70, average", "result": 3.438, "unit": "%"}, {"measurement": "% Cells 1N*2K2F, Average", "setting": "[2]; EC70, average", "result": 5.902, "unit": "%"}, {"measurement": "% Cells 2N1K, Average", "setting": "[2]; EC70, average", "result": 3.953, "unit": "%"}, {"measurement": "% Cells 2N2K2F, Average", "setting": "[2]; EC70, average", "result": 19.5971, "unit": "%"}, {"measurement": "% Cells Other, Average", "setting": "[2]; EC70, average", "result": 4.355, "unit": "%"}, {"measurement": "% Cells 0N1K, individual replicates", "setting": "[2]; EC70, single replicates", "result": "0% and 0.9174%"}, {"measurement": "% Cells 1N1K1F, individual replicates", "setting": "[2]; EC70, single replicates", "result": "56.701% and 67.8899%"}, {"measurement": "% Cells 1N*1K*1F, individual replicates", "setting": "[2]; EC70, single replicates", "result": "4.124% and 2.752%"}, {"measurement": "% Cells 1N*2K2F, individual replicates", "setting": "[2]; EC70, single replicates", "result": "7.216% and 4.587%"}, {"measurement": "% Cells 2N1K, individual replicates", "setting": "[2]; EC70, single replicates", "result": "5.155% and 2.752%"}, {"measurement": "% Cells 2N2K2F, individual replicates", "setting": "[2]; EC70, single replicates", "result": "22.6804% and 16.5138%"}, {"measurement": "% Cells Other, individual replicates", "setting": "[2]; EC70, single replicates", "result": "4.124% and 4.587%"}]}
